In ChEMBL document CHEMBL5346936, “Functionalized sulfonyl anthranilic acid derivatives inhibit replication of all the four dengue serotypes” (Eur J Med Chem, 2023):
Activity calls are given as the source filed them. No cut-off for these calls is given here.

How the values were obtained:
[1] = test system: dengue virus type 2; test: Antiviral activity against DENV-2 EDEN 3295 infected in 10^5 human Huh-7 cells at 0.3 MOI for 1 hr followed by compound treatment for 48 hrs; format: functional, organism-based; settings: EDEN 3295, Huh-7
[2] = Cytotoxicity against human Huh-7 cells treated for 48 hrs measured by celltitre-glo luminescent assay; format: toxicity, cell-based
[3] = Selectivity index, ratio of CC50 for human Huh-7 cells to EC50 for antiviral activity against DENV-2 EDEN 3295; format: toxicity; settings: read-out: Ratio CC50/EC50
[4] = test system: dengue virus type 2; test: Inhibition of DENV-2 NS5 polymerase incubated for 1 hr measured at 30 uM by fluorescence based alkaline phosphate coupled polymerase assay
[5] = test system: dengue virus type 2; test: Antiviral activity against DENV-2 EDEN 3295 infected in 10^5 human Huh-7 cells at 0.3 MOI for 1 hr followed by compound treatment at 10 uM for 48 hrs relative to control; format: functional
[6] = (§1) Inhibition of DENV-2 NS5 polymerase incubated for 1 hr measured by fluorescence based alkaline phosphate coupled polymerase assay; set-up: species or system dengue virus type 2
[7] = test system: dengue virus type 2; test: as §1
[8] = test system: dengue virus type 2; test: Antiviral activity against DENV-2 infected in human Huh-7 cells at MOI 1 assessed as reduction of intracellular viral titre at 10 uM, 2 hr prior to infection measured after 48 hrs measured by RT-PCR analysis; format: functional, organism-based; settings: time 50.0 hrs
[9] = test system: dengue virus type 2; test: Antiviral activity against DENV-2 infected in human Huh-7 cells at MOI 1 assessed as reduction of intracellular viral titre at 10 uM during infection measured after 48 hrs measured by RT-PCR analysis; format: functional, organism-based
[10] = test system: dengue virus type 2; test: Antiviral activity against DENV-2 infected in human Huh-7 cells at MOI 1 assessed as reduction of intracellular viral titre at 10 uM measured after 2 hrs post infection by RT-PCR analysis; format: functional, organism-based
[11] = test system: dengue virus type 2; test: Antiviral activity against DENV-2 infected in human Huh-7 cells at MOI 1 assessed as reduction of intracellular viral titre at 10 uM measured after 24 hrs post infection by RT-PCR analysis; format: functional, organism-based
[12] = test system: dengue virus type 2; test: Antiviral activity against DENV-2 infected in human Huh-7 cells at MOI 1 assessed as log reduction of intracellular viral titre at 10 uM measured after 60 hrs post infection by RT-PCR analysis; format: functional
[13] = test system: dengue virus type 2; test: Antiviral activity against DENV-2 infected in human Huh-7 cells assessed as reduction of viral protein NS3 expression at 10 uM for 12 hrs post infection by RT-PCR analysis; format: functional, organism-based
[14] = test system: dengue virus type 2; test: Antiviral activity against DENV-2 infected in human Huh-7 cells assessed as reduction of viral protein NS5 expression at 10 uM for 12 hrs post infection by RT-PCR analysis; format: functional, organism-based
[15] = test system: dengue virus type 2; test: Antiviral activity against DENV-2 infected with asian tiger mosquito C6/36 cells; format: functional, organism-based
[16] = test system: dengue virus type 2; test: Antiviral activity against DENV-2 infected with hamster BHK-21 cells; format: functional, organism-based
[17] = test system: dengue virus type 2; test: Antiviral activity against DENV-2 infected with green monkey Vero cells; format: functional, organism-based
[18] = test system: dengue virus type 2; test: Antiviral activity against DENV-2 infected with human Calu-1 cells; format: functional, organism-based
[19] = test system: dengue virus type 2; test: Antiviral activity against DENV-2 infected with human A549 cells; format: functional, organism-based
[20] = Cytotoxicity against asian tiger mosquito C6/36 cells; format: toxicity, cell-based; settings: aedes albopictus
[21] = Cytotoxicity against hamster BHK-21 cells; format: toxicity, cell-based, Mesocricetus auratus
[22] = Cytotoxicity against green monkey Vero cells; format: toxicity, cell-based; settings: chlorocebus sabaeus
[23] = Cytotoxicity against human Huh-7 cells; format: toxicity, cell-based
[24] = Cytotoxicity against human Calu-1 cells; format: toxicity, cell-based
[25] = Cytotoxicity against human A549 cells; format: toxicity, cell-based

COc1ccc(NS(=O)(=O)c2cccc3cccnc23)c(C(=O)NCc2ccccc2)c1
EC50 [1]: 4.8 µM | CC50 at 48 h [2]: > 100 µM | selectivity ratio [3]: > 20.8

CCc1cccc(Oc2ccc(NS(C)(=O)=O)c(C(=O)N[C@H](C)c3ccccc3)c2)c1
EC50 [1]: 17.9 µM | CC50 at 48 h [2]: 51.1 µM | selectivity ratio [3]: 2.85 | inhibition [4]: inactive

COc1ccc(CNC(=O)c2cc(Oc3cccc(Br)c3)ccc2NS(=O)(=O)c2cccc3cccnc23)cc1OC
Activity [5]: 50%

CCCOc1ccc(NS(=O)(=O)c2cccc3cccnc23)c(C(=O)NC(CC)CC)c1
EC50 [1]: 2.2 µM | CC50 at 48 h [2]: > 100 µM | selectivity ratio [3]: > 45

O=C(NCc1ccccc1)c1ccccc1NS(=O)(=O)c1cccc2cccnc12
Activity [5]: 0%

CCc1cccc(Oc2ccc(NS(=O)(=O)c3cccc4cccnc34)c(C(=O)NCc3ccc4c(c3)OCO4)c2)c1
EC50 [1]: 5.9 µM | CC50 at 48 h [2]: > 100 µM | selectivity ratio [3]: > 16.9

CCCOc1ccc(NC(=O)c2cccc3cccnc23)c(C(=O)NCc2ccccc2)c1
EC50 [1]: 5.6 µM | CC50 at 48 h [2]: > 100 µM | selectivity ratio [3]: > 17

O=C(Nc1ccccc1)c1cc(Oc2cccc(Br)c2)ccc1NS(=O)(=O)c1cccc2cccnc12
EC50 [1]: 4.4 µM | CC50 at 48 h [2]: 64.7 µM | selectivity ratio [3]: 14.7

O=C(NCc1ccccc1)c1cc(Oc2cccc(Br)c2)ccc1NS(=O)(=O)c1cccs1
Activity [5]: 0%

C#C[C@@]1(O)[C@H](O)[C@@H](CO)O[C@H]1n1ccc2c(N)ncnc21
EC50 [1]: 0.23 µM | selectivity ratio [3]: 434

O=C(NCc1ccccc1)c1cc(Oc2cccc(Br)c2)ccc1NS(=O)(=O)c1cccc2cccnc12
EC50 [1]: 7.3 µM | CC50 at 48 h [2]: > 100 µM | selectivity ratio [3]: > 13.6

O=C(NCc1ccccc1)c1cc(F)ccc1NS(=O)(=O)c1cccc2cccnc12
Activity [5]: 0%

CCc1cccc(Oc2ccc(NS(C)(=O)=O)c(C(=O)NCc3ccccc3)c2)c1
EC50 [1]: 44.9 µM | CC50 at 48 h [2]: 78.6 µM | selectivity ratio [3]: 1.75 | inhibition [4]: inactive

CCCOc1cc(C(=O)NCc2ccccc2)ccc1NS(=O)(=O)c1cccc2cccnc12
Activity [5]: 0%

COc1ccc(CNC(=O)c2cc(Oc3cccc(Br)c3)ccc2NS(C)(=O)=O)cc1OC
EC50 [1]: 48.8 µM | CC50 at 48 h [2]: 100 µM | selectivity ratio [3]: 2.05 | inhibition [4]: inactive

CCCOc1ccc(NS(=O)(=O)c2cccc3cccnc23)c(C(=O)NC2CCC2)c1
EC50 [1]: 2.5 µM | CC50 at 48 h [2]: > 100 µM | selectivity ratio [3]: > 40

CCc1cccc(Oc2ccc(NS(=O)(=O)c3cccc4cccnc34)c(C(=O)NCc3ccccc3)c2)c1
EC50 [1]: 3 µM | CC50 at 48 h [2]: > 100 µM | selectivity ratio [3]: > 32.8

O=C(NCc1ccccc1)c1cc(Oc2cccc(Br)c2)ccc1NS(=O)(=O)c1ccc2c(c1)CCO2
Activity [5]: 32.5%

CCc1cccc(Oc2ccc(NS(C)(=O)=O)c(C(=O)NCc3ccc(F)c(F)c3)c2)c1
EC50 [1]: 33.9 µM | CC50 at 48 h [2]: 41.1 µM | selectivity ratio [3]: 1.21 | inhibition [4]: inactive

CS(=O)(=O)Nc1ccc(Oc2cccc(Br)c2)cc1C(=O)NCc1ccc(F)c(F)c1
EC50 [1]: 42.6 µM | CC50 at 48 h [2]: 40.3 µM | inhibition [4]: inactive

COc1ccc(C(=O)NCc2ccccc2)c(NS(=O)(=O)c2cccc3cccnc23)c1
Activity [5]: 0%

CCCOc1ccc(NS(=O)(=O)c2cccc3cccnc23)c(C(=O)NCCc2ccccc2)c1
EC50 [1]: 2.2 µM | CC50 at 48 h [2]: > 100 µM | selectivity ratio [3]: > 45.5

O=C(NCc1ccccc1)c1cc(Oc2cccc(Br)c2)ccc1NS(=O)(=O)N1CCOCC1
Activity [5]: 0%

CCCOc1ccc(NS(=O)(=O)c2cccc3ccccc23)c(C(=O)NCc2ccccc2)c1
Activity [5]: 0%

CCCOc1ccc(NS(=O)(=O)c2cccc3cccnc23)c(C(=O)NCCN2CCCCC2)c1
Activity [5]: 20%

O=C(NCc1ccc(F)c(F)c1)c1cc(Oc2cccc(Br)c2)ccc1NS(=O)(=O)c1cccc2cccnc12
EC50 [1]: 5.6 µM | CC50 at 48 h [2]: > 100 µM | selectivity ratio [3]: > 17.8

O=C(NCc1ccccc1)c1cc(Oc2cccc(Br)c2)ccc1NS(=O)(=O)c1cccnc1
Activity [5]: 12.5%

CS(=O)(=O)Nc1ccc(Oc2cccc(Br)c2)cc1C(=O)NCc1ccccc1
EC50 [1]: 47.5 µM | CC50 at 48 h [2]: 66.4 µM | selectivity ratio [3]: 1.39 | inhibition [4]: inactive

NC(=O)c1cc(Oc2cccc(Br)c2)ccc1NS(=O)(=O)c1cccc2cccnc12
Activity [5]: 27.5%

O=C(OC1=CS(=O)(=O)Nc2ccc(Oc3ccccc3Br)cc21)c1ccc(F)c(F)c1
IC50 [6]: 18.4 µM

CCCOc1ccc(NS(=O)(=O)c2cccc3cccnc23)c(C(=O)N(CC)Cc2ccccc2)c1
Activity [5]: 25%

CCCOc1ccc(NS(=O)(=O)c2cccc3cccnc23)c(C(=O)NC2CC2)c1
EC50 [1]: 8.7 µM | CC50 at 48 h [2]: > 100 µM | selectivity ratio [3]: > 11

CCCOc1ccc(NS(=O)(=O)c2cccc3cccnc23)c(C(=O)NCc2ccccc2)c1
CC50 at 48 h [2]: > 100 µM | inhibition [7]: inactive | Activity [8]: inactive | Activity [9]: inactive | Activity [10]: Active | Activity [11]: Active | log(activity) [12]: 3 | Activity [13]: Active | Activity [14]: Active | EC50 [15]: > 10 µM | EC50 [16]: 20 µM | EC50 [17]: 1.09 µM | EC50 [18]: 0.18 µM | EC50 [19]: 1.38 µM | CC50 [20]: > 100 µM | CC50 [21]: > 25 µM | CC50 [22]: > 25 µM | CC50 [23]: > 100 µM | CC50 [24]: > 100 µM | CC50 [25]: > 100 µM

O=C(NCc1ccccc1)c1cc(Oc2cccc(Br)c2)ccc1NS(=O)(=O)c1ccc(F)c(F)c1
EC50 [1]: 12.5 µM | CC50 at 48 h [2]: 44.5 µM | selectivity ratio [3]: 3.56

O=C(NCc1ccccc1)c1cc(OCC2CCCCC2)ccc1NS(=O)(=O)c1cccc2cccnc12
Activity [5]: 45%

CCCOc1ccc(NS(=O)(=O)c2cccc3cccnc23)c(C(=O)NCCCc2ccccc2)c1
EC50 [1]: 3.9 µM | CC50 at 48 h [2]: > 100 µM | selectivity ratio [3]: > 25.6

O=C(NCc1ccccc1)c1cc(Oc2ccccc2)ccc1NS(=O)(=O)c1cccc2cccnc12
EC50 [1]: 3.9 µM | CC50 at 48 h [2]: > 100 µM | selectivity ratio [3]: > 25.4

CCCOc1ccc(NS(=O)(=O)c2cccc3cccnc23)c(C(=O)NC2CCCc3ccccc32)c1 (stereo not drawn)
EC50 [1]: 1.9 µM | CC50 at 48 h [2]: > 100 µM | selectivity ratio [3]: > 52.6

CCCOc1ccc(NS(=O)(=O)c2cccc3cccnc23)c(C(=O)N2CCc3ccccc3C2)c1
EC50 [1]: 6.1 µM | CC50 at 48 h [2]: > 100 µM | selectivity ratio [3]: > 16.4
